Test results as given in article PMC6718324 (European journal of medicinal chemistry, 2019).
Values belong to the compound of their own block, whether it stands above or below them.

Tests used:
[1] = system: hCAR; test: hCAR nuclear translocation assay in HPH; assay type: cell-based, human; settings: Ad-EYFP-hCAR-infected HPH, 1 μM, 8 h
[2] = cited from earlier work
[3] = target: T1, hCAR (Homo sapiens, UniProt Q14994); test: hCAR agonist luciferase reporter gene assay; assay type: cell-based; settings: for fold decrease in potency (EC50) compared to compound 2: hCAR EC50 vs parent compound 2; for hCAR agonist activity (in words): hCAR luciferase reporter
T1 sequence (Q14994 1-348 isoform Q14994-2): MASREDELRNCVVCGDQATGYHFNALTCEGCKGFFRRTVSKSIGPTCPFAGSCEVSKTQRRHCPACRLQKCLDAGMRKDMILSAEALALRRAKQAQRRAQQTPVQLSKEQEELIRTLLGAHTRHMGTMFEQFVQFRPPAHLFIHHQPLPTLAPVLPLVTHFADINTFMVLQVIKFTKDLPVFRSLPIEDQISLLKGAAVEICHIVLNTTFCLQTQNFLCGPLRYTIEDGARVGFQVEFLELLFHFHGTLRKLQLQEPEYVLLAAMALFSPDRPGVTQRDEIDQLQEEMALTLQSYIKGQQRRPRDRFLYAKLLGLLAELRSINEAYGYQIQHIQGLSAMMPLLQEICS
T1 sequence (P19793 1-462 partner): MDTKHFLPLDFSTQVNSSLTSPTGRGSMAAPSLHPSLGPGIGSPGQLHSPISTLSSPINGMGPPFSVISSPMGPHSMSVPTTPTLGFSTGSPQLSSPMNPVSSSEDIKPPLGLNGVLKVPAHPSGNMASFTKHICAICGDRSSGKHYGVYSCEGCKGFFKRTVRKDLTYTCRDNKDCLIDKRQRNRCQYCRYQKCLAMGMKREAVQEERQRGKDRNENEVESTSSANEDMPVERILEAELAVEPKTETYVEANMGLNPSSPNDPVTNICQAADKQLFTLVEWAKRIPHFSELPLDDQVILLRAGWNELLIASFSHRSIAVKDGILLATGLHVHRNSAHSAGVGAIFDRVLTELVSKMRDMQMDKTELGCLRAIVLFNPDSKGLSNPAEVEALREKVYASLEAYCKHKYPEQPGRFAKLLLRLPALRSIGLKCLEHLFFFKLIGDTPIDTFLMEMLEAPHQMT

[4] = target: T2, hPXR (Homo sapiens, UniProt O75469); test: HepG2 cell reporter assay, hPXR activation; assay type: cell-based; settings: 1 μM; for hPXR activation in HepG2 cell reporter assay (in words): normalized against rifampicin; for selectivity for hCAR over hPXR (in words): HepG2 cell reporter assays
T2 sequence (O75469 1-434): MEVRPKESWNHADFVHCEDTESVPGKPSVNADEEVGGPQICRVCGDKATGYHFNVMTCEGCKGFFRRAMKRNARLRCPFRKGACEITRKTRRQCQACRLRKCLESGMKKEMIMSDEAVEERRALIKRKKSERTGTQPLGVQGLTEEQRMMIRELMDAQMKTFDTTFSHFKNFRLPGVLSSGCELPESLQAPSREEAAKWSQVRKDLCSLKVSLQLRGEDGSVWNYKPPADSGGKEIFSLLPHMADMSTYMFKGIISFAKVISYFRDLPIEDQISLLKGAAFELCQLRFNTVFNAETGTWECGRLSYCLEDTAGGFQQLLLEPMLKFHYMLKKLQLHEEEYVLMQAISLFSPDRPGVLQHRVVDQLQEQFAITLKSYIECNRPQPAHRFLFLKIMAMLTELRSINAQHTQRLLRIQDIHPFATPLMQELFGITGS

[5] = system: hCAR; test: HepG2 cell reporter assay, hCAR activation; assay type: cell-based, human; settings: 1 μM; normalized against CITCO
[6] = system: SU-DHL-4 cells; test: CHOP-mediated cytotoxicity in HPH/SU-DHL-4 co-culture; assay type: cell-based, human
[7] = Stability; assay type: physicochemical

Compound: Clc1ccc(-c2nc3sccn3c2/C=N/OCc2ccc(Cl)c(Cl)c2)cc1 [CITCO, 6-(4-chlorophenyl)imidazo-[2,1-b]thiazole-5-carbaldehyde-O-(3,4-dichlorobenzyl)oxime, reference compound]
hCAR translocation from cytoplasm to nucleus (in words) [1]: efficiently translocated into the nucleus
stability of results in hCAR luciferase gene reporter assay (in words) [2]: unstable results

Compound: Clc1ccc(-c2nc3sccn3c2CNCc2ccccc2)cc1 [Compound 15, N-Benzyl-1-(6-(4-chlorophenyl)imidazo[2,1-b]thiazol-5-yl)methanamine]
fold decrease in potency compared to compound 14 ([3]; hCAR EC50, analog one CH2 shorter than 14): over 11 fold

Compound: Clc1ccc(-c2nc3sccn3c2CNC2Cc3ccccc3C2)cc1 [Compound 17, N-((6-(4-Chlorophenyl)imidazo[2,1-b]thiazol-5-yl)methyl)-2,3-dihydro-1H-inden-2-amine]
selectivity for hCAR over hPXR (in words) [4]: maintaining selectivity for hCAR against hPXR

Compound: Clc1ccc(-c2nc3sccn3c2CNc2ccc3ccccc3c2)cc1 [Compound 18, N-((6-(4-Chlorophenyl)imidazo[2,1-b]thiazol-5-yl)methyl)naphthalen-2-amine]
hCAR agonist activity (in words) [3]: inactive

Compound: CCc1nc2sccn2c1CNCCc1ccc(Cl)c(Cl)c1 [Compound 19, 2-(3,4-Dichlorophenyl)-N-((6-ethylimidazo[2,1-b]thiazol-5-yl)methyl)ethan-1-amine]
hCAR agonist activity (in words) [3]: dramatic drop in hCAR activity

Compound: Fc1ccc(-c2nc3sccn3c2CNCCc2ccc(Cl)c(Cl)c2)cc1 [Compound 23, 2-(3,4-Dichlorophenyl)-N-((6-(4-fluorophenyl)imidazo[2,1-b]thiazol-5-yl)methyl)ethan-1-amine]
hCAR activation in HepG2 cell reporter assay (in words) [5]: slightly decreased activation potency

Compound: Clc1ccc(CCNCc2c(-c3ccccc3)nc3sccn23)cc1Cl [Compound 24, 2-(3,4-Dichlorophenyl)-N-((6-phenylimidazo[2,1-b]thiazol-5-yl)methyl)ethan-1-amine]
hCAR activation in HepG2 cell reporter assay (in words) [5]: slightly decreased activation potency

Compound: c1ccc(CCNCc2c(-c3ccc4ccccc4c3)nc3sccn23)cc1 [Compound 30, N-((6-(Naphthalen-2-yl)imidazo[2,1-b]thiazol-5-yl)methyl)-2-phenylethan-1-amine]
hPXR activation in HepG2 cell reporter assay (in words) [4]: significantly activated hPXR

Compound: c1ccc2c(c1)CC(NCc1c(-c3ccc4ccccc4c3)nc3sccn13)C2 [Compound 31, N-((6-(Naphthalen-2-yl)imidazo[2,1-b]thiazol-5-yl)methyl)-2,3-dihydro-1H-inden-2-amine]
hCAR activation in HepG2 cell reporter assay (in words) [5]: enhanced hCAR activation over CITCO
hPXR activation in HepG2 cell reporter assay (in words) [4]: slightly increased

Compound: c1ccc2c(c1)CC(NCc1c(-c3ccc4ccccc4c3)nc3occn13)C2 [DL5016, N-((6-(Naphthalen-2-yl)imidazo[2,1-b]oxazol-5-yl)methyl)-2,3-dihydro-1H-inden-2-amine]
effect on CHOP-induced cytotoxicity in SU-DHL-4 cells (in words) ([6]; DL5016 1 μM with CHOP, 24 h): significantly enhanced CHOP-induced cytotoxicity
cytotoxicity of compound alone in co-cultured SU-DHL-4 cells (in words) ([6]; control experiment without CHOP): did not show cytotoxicity
hCAR activation in HepG2 cell reporter assay (in words) [5]: significant improvement in hCAR activation over CITCO
hCAR translocation from cytoplasm to nucleus (in words) [1]: efficiently translocated into the nucleus
selectivity for hCAR over hPXR (in words) [4]: maintaining selectivity over hPXR
stability (in words) [7]: excellent stability

More lines, main results first:

fold increase in potency compared to CITCO ([3]; hCAR EC50 vs CITCO): 1.4 fold
Compound: Clc1ccc(-c2nc3sccn3c2CNCCc2ccc(Cl)c(Cl)c2)cc1 [Compound 2, N-((6-(4-Chlorophenyl)imidazo[2,1-b]thiazol-5-yl)methyl)-2-(3,4-dichlorophenyl)ethan-1-amine]

hPXR activation in HepG2 cell reporter assay (in words) [4]: significantly activated hPXR
Compound: Clc1ccc(-c2nc3sccn3c2COCCc2ccc(Cl)c(Cl)c2)cc1 [Compound 5, 6-(4-Chlorophenyl)-5-((3,4-dichlorophenethoxy)methyl)imidazo[2,1-b]thiazole]

fold decrease in potency (EC50) compared to compound 2 [3]: 5.5 fold
Compound: Cc1cn2c(CNCCc3ccc(Cl)c(Cl)c3)c(-c3ccc(Cl)cc3)nc2s1 [Compound 6, N-((6-(4-Chlorophenyl)-2-methylimidazo[2,1-b]thiazol-5-yl)methyl)-2-(3,4-dichlorophenyl)ethan-1-amine]

fold decrease in potency (EC50) compared to compound 2 [3]: 3.2 fold
selectivity for hCAR over hPXR (in words) [4]: good specificity for hCAR
Compound: Clc1ccc(-c2nc3occn3c2CNCCc2ccc(Cl)c(Cl)c2)cc1 [Compound 7, N-((6-(4-Chlorophenyl)imidazo[2,1-b]oxazol-5-yl)methyl)-2-(3,4-dichlorophenyl)ethan-1-amine]
hCAR activation in HepG2 cell reporter assay (in words) [5]: slight decrease in hCAR activation potency

fold decrease in potency (EC50) compared to compound 2 [3]: 2 fold
Compound: Clc1ccc(-c2nc3ncccn3c2CNCCc2ccc(Cl)c(Cl)c2)cc1 [Compound 8, N-((2-(4-Chlorophenyl)imidazo[1,2-a]pyrimidin-3-yl)methyl)-2-(3,4-dichlorophenyl)ethan-1-amine]
hCAR activation in HepG2 cell reporter assay (in words) [5]: less potent compared to CITCO

fold decrease in potency (EC50) compared to compound 2 [3]: 1.6 fold
Compound: Clc1ccc(CCNCc2c(-c3ccc(Cl)cc3)nc3sccn23)cc1 [Compound 9, 2-(4-Chlorophenyl)-N-((6-(4-chlorophenyl)imidazo[2,1-b]thiazol-5-yl)methyl)ethan-1-amine]
selectivity for hCAR over hPXR (in words) [4]: maintaining selectivity for hCAR against hPXR

fold decrease in potency (EC50) compared to compound 2 [3]: 7 fold
Compound: Clc1ccc(-c2nc3sccn3c2CNCCc2cccc(Cl)c2)cc1 [Compound 10, 2-(3-Chlorophenyl)-N-((6-(4-chlorophenyl)imidazo[2,1-b]thiazol-5-yl)methyl)ethan-1-amine]

hCAR agonist activity (in words) [3]: potent hCAR agonist
Compound: Clc1ccc(-c2nc3sccn3c2CNCCc2ccccc2)cc1 [Compound 14, N-((6-(4-Chlorophenyl)imidazo[2,1-b]thiazol-5-yl)methyl)-2-phenylethan-1-amine]
selectivity for hCAR over hPXR (in words) [4]: maintaining selectivity for hCAR against hPXR

fold decrease in potency (EC50) compared to compound 2 [3]: 2.3 fold
Compound: Clc1cccc(-c2nc3sccn3c2CNCCc2ccc(Cl)c(Cl)c2)c1 [Compound 20, N-((6-(3-Chlorophenyl)imidazo[2,1-b]thiazol-5-yl)methyl)-2-(3,4-dichlorophenyl)ethan-1-amine]

hCAR agonist activity (in words) [3]: much weaker agonist
Compound: FC(F)(F)c1ccc(-c2nc3sccn3c2CNCCc2ccc(Cl)c(Cl)c2)cc1 [Compound 22, 2-(3,4-Dichlorophenyl)-N-((6-(4-(trifluoromethyl)phenyl)imidazo[2,1-b]thiazol-5-yl)methyl)ethan-1-amine]

hCAR agonist activity (in words) [3]: significantly less active
Compound: N#Cc1ccc(-c2nc3sccn3c2CNCCc2ccc(Cl)c(Cl)c2)cc1 [Compound 27, 4-(5-(((3,4-Dichlorophenethyl)amino)methyl)imidazo[2,1-b]thiazol-6-yl)benzonitrile]

hCAR agonist activity (in words) [3]: significantly less active
Compound: CC(C)(C)c1ccc(-c2nc3sccn3c2CNCCc2ccc(Cl)c(Cl)c2)cc1 [Compound 28, N-((6-(4-(tert-Butyl)phenyl)imidazo[2,1-b]thiazol-5-yl)methyl)-2-(3,4-dichlorophenyl)ethan-1-amine]

fold decrease in potency (EC50) compared to compound 2 [3]: 3 fold
selectivity for hCAR over hPXR (in words) [4]: retained selectivity for hCAR over hPXR
Compound: Clc1ccc(CCNCc2c(-c3ccc4ccccc4c3)nc3sccn23)cc1Cl [Compound 29, 2-(3,4-Dichlorophenyl)-N-((6-(naphthalen-2-yl)imidazo[2,1-b]thiazol-5-yl)methyl)ethan-1-amine]
hCAR activation in HepG2 cell reporter assay (in words) [5]: slight increase in activation of hCAR
